Measurements published in ChEMBL document CHEMBL3603789, “N-Lipidated Peptide Dimers: Effective Antibacterial Agents against Gram-Negative Pathogens through Lipopolysaccharide Permeabilization” (J Med Chem, 2015).
pEC50: −log10 of the molar value. Converted amounts (≈) assume the structure as drawn. The source made the active and inactive calls. No cut-off for these calls is given here. Bridge positions count the residues as written; N and C are the ends. Peptide text beside a SMILES is read from it. I, II: the chains in the order shown. * marks the point of attachment. Palmitoyl = CCCCCCCCCCCCCCCC(=O)*; Myristoyl = CCCCCCCCCCCCCC(=O)*; Lauroyl = CCCCCCCCCCCC(=O)*; Hexanoyl = CCCCCC(=O)*

How the values were obtained:
[1] = Toxicity in New Zealand white rabbit erythrocytes assessed as hemolytic activity after 60 mins; type: cell-based, Oryctolagus cuniculus; conditions: erythrocyte, 1 h
[2] = Self-aggregation activity of the compound using 8-(Phenylamino)-1-naphthalenesulfonic acid as fluorescent probe at 300 uM by fluorescence assay in presence of 150 mM of NaCl; type: physicochemical
[3] = Self-aggregation activity of the compound using 8-(Phenylamino)-1-naphthalenesulfonic acid as fluorescent probe at 100 uM by fluorescence assay; type: physicochemical
Lipopolysaccharide (LPS) [4] = assay: Displacement of dansylcadaverine from Escherichia coli 0111:B4 LPS at 15 to 30 uM after 5 mins by high-throughput fluorescence displacement assay
Lipopolysaccharide (LPS) [5] = assay: Induction of Escherichia coli 0111:B4 LPS neutralization using p-nitroaniline assessed as concentration required to neutralize 50% after 1 hr by limulus amebocyte lysate assay
Pseudomonas aeruginosa [6] = assay: Induction of cytoplasmic membrane disruption in Pseudomonas aeruginosa DM23155 assessed as membrane integrity at 1 to 2 times MIC after 1 hr by fluorescence assay; type: functional
Pseudomonas aeruginosa [7] = assay: Antibacterial activity against Pseudomonas aeruginosa DM23155 after 24 hrs by broth microdilution method; type: functional; conditions: DM23155, 24 h
[8] = Self-aggregation activity of the compound using 8-(Phenylamino)-1-naphthalenesulfonic acid as fluorescent probe at 20 uM by fluorescence assay; type: physicochemical
[9] = Induction of calcein leakage from DOPE/DOPG artificial membrane at 1:32 ratio of compound to lipid by fluorescence assay; type: physicochemical
[10] = Induction of calcein leakage from DOPC artificial membrane at 1:32 ratio of compound to lipid by fluorescence assay; type: physicochemical
Klebsiella pneumoniae = assay: Antibacterial activity against Klebsiella pneumoniae DM4299 after 24 hrs by broth microdilution method; type: functional; conditions: DM4299, 24 h
Escherichia coli [11] = assay: Antibacterial activity against Escherichia coli ATCC 25922 after 24 hrs by broth microdilution method; type: functional; conditions: ATCC 25922, 24 h
Pseudomonas aeruginosa [12] = assay: Antibacterial activity against Pseudomonas aeruginosa DM23155 after 24 hrs by checkerboard assay in presence of kanamycin; type: functional
Pseudomonas aeruginosa [13] = assay: Antibacterial activity against Pseudomonas aeruginosa DM23155 after 24 hrs by checkerboard assay in presence of gentamicin; type: functional
Pseudomonas aeruginosa [14] = assay: Antibacterial activity against Pseudomonas aeruginosa DM23155 after 24 hrs by checkerboard assay in presence of streptomycin; type: functional
Escherichia coli [15] = assay: Antibacterial activity against Escherichia coli ATCC 25922 after 24 hrs by checkerboard assay in presence of kanamycin; type: functional
Escherichia coli [16] = assay: Antibacterial activity against Escherichia coli ATCC 25922 after 24 hrs by checkerboard assay in presence of nalidixic acid; type: functional
Escherichia coli [17] = assay: Antibacterial activity against Escherichia coli ATCC 25922 after 24 hrs by checkerboard assay in presence of streptomycin; type: functional
Escherichia coli [18] = assay: Antibacterial activity against Escherichia coli ATCC 25922 after 24 hrs by checkerboard assay in presence of gentamicin; type: functional
Escherichia coli [19] = assay: Antibacterial activity against Escherichia coli ATCC 25922 after 24 hrs by checkerboard assay in presence of erythromycin; type: functional
Pseudomonas aeruginosa [20] = assay: Induction of 1-N-phenylnaphthylamine uptake in Pseudomonas aeruginosa DM23155 at 400 uM after 1 hr by fluorescence assay relative to polymyxin B; type: functional
Pseudomonas aeruginosa [21] = assay: Antibacterial activity against Pseudomonas aeruginosa DM23155 after 24 hrs by checkerboard assay in presence of nalidixic acid; type: functional
Pseudomonas aeruginosa [22] = assay: Antibacterial activity against Pseudomonas aeruginosa DM23155 after 24 hrs by checkerboard assay in presence of erythromycin; type: functional
[23] = Self-aggregation activity of the compound using 8-(Phenylamino)-1-naphthalenesulfonic acid as fluorescent probe at 300 uM by fluorescence assay; type: physicochemical
Pseudomonas aeruginosa [24] = assay: Induction of cytoplasmic membrane depolarization in Pseudomonas aeruginosa DM23155 at 4 times MIC after 1 hr by fluorescence assay; type: functional, organism-based

Row | Structure (SMILES) | HC10 [1] | Activity [2] | Activity [3] | Activity (Lipopolysaccharide (LPS) [4]) | pEC50 (Lipopolysaccharide (LPS) [5]) | Activity (Pseudomonas aeruginosa [6]) | MIC (Pseudomonas aeruginosa [7]) | Activity [8] | Activity [9] | Activity [10] | MIC (Klebsiella pneumoniae) | MIC (Escherichia coli [11]) | Activity (Pseudomonas aeruginosa [20]) | further results
1 | CCCCCCCCCCCCCCCC(=O)N[C@@H](CCCNC(=N)N)C(=O)NCC(=O)N[C@@H](CCCNC(=N)N)C(=O)N[C@@H](CCCCN)C(=O)N[C@H](C(=O)N[C@H](C(=O)N[C@@H](CCCNC(=N)N)C(=O)N[C@@H](CCCNC(=N)N)C(=O)NCCCC[C@H](NC(=O)[C@H](CCCNC(=N)N)NC(=O)[C@H](CCCNC(=N)N)NC(=O)[C@@H](NC(=O)[C@@H](NC(=O)[C@H](CCCCN)NC(=O)[C@H](CCCNC(=N)N)NC(=O)CNC(=O)[C@H](CCCNC(=N)N)NC(=O)CCCCCCCCCCCCCCC)C(C)C)C(C)C)C(=O)N[C@@H](CCCCN)C(=O)O)C(C)C)C(C)C (I: Palmitoyl-RGRKVVRRKK-OH / II: Palmitoyl-RGRKVVRR; amide I:9-II:C) | 114 µg/mL | Active | 50% | 151% | 4.32 | <50% | > 40 µM | 50% | Active | Active | > 40 µM | 10 µM (≈ 27.7 µg/mL) | – | –
2 | CCCCCC(=O)N[C@@H](CCCNC(=N)N)C(=O)NCC(=O)N[C@@H](CCCNC(=N)N)C(=O)N[C@@H](CCCCN)C(=O)NCC(=O)NCC(=O)N[C@@H](CCCNC(=N)N)C(=O)N[C@@H](CCCNC(=N)N)C(=O)NCCCC[C@H](NC(=O)[C@H](CCCNC(=N)N)NC(=O)[C@H](CCCNC(=N)N)NC(=O)CNC(=O)CNC(=O)[C@H](CCCCN)NC(=O)[C@H](CCCNC(=N)N)NC(=O)CNC(=O)[C@H](CCCNC(=N)N)NC(=O)CCCCC)C(=O)N[C@@H](CCCCN)C(=O)O (I: Hexanoyl-RGRKGGRRKK-OH / II: Hexanoyl-RGRKGGRR; amide I:9-II:C) | > 10000 µg/mL | – | – | 86.4% | 3.38 | – | 3 µM (≈ 6.96 µg/mL) | – | – | – | 3 µM (≈ 6.96 µg/mL) | 3 µM (≈ 6.96 µg/mL) | 10.5% | fractional inhibitory concentration index (FICI) (Pseudomonas aeruginosa [12]): 0.5; fractional inhibitory concentration index (FICI) (Pseudomonas aeruginosa [13]): 0.31; fractional inhibitory concentration index (FICI) (Pseudomonas aeruginosa [14]): 0.5; fractional inhibitory concentration index (FICI) (Escherichia coli [15]): 0.5; fractional inhibitory concentration index (FICI) (Escherichia coli [16]): 0.75; fractional inhibitory concentration index (FICI) (Escherichia coli [17]): 0.38; fractional inhibitory concentration index (FICI) (Escherichia coli [18]): 0.56; fractional inhibitory concentration index (FICI) (Escherichia coli [19]): 0.75; fractional inhibitory concentration index (FICI) (Pseudomonas aeruginosa [21]): 0.63; fractional inhibitory concentration index (FICI) (Pseudomonas aeruginosa [22]): 0.56
3 | CCCCCCCCCCCC(=O)N[C@@H](CCCNC(=N)N)C(=O)NCC(=O)N[C@@H](CCCNC(=N)N)C(=O)N[C@@H](CCCCN)C(=O)NCC(=O)NCC(=O)N[C@@H](CCCNC(=N)N)C(=O)N[C@@H](CCCNC(=N)N)C(=O)NCCCC[C@H](NC(=O)[C@H](CCCNC(=N)N)NC(=O)[C@H](CCCNC(=N)N)NC(=O)CNC(=O)CNC(=O)[C@H](CCCCN)NC(=O)[C@H](CCCNC(=N)N)NC(=O)CNC(=O)[C@H](CCCNC(=N)N)NC(=O)CCCCCCCCCCC)C(=O)N[C@@H](CCCCN)C(=O)O (I: Lauroyl-RGRKGGRRKK-OH / II: Lauroyl-RGRKGGRR; amide I:9-II:C) | 517 µg/mL | – | – | 126% | 4.20 | – | 6 µM (≈ 14.9 µg/mL) | – | – | Active | 6 µM (≈ 14.9 µg/mL) | 6 µM (≈ 14.9 µg/mL) | 55.9% | Activity [23]: 62.5%
4 | CCCCCCCCCCCCCCCC(=O)N[C@@H](CCCNC(=N)N)C(=O)NCC(=O)N[C@@H](CCCNC(=N)N)C(=O)N[C@@H](CCCCN)C(=O)NCC(=O)NCC(=O)N[C@@H](CCCNC(=N)N)C(=O)N[C@@H](CCCNC(=N)N)C(=O)NCCCC[C@H](NC(=O)[C@H](CCCNC(=N)N)NC(=O)[C@H](CCCNC(=N)N)NC(=O)CNC(=O)CNC(=O)[C@H](CCCCN)NC(=O)[C@H](CCCNC(=N)N)NC(=O)CNC(=O)[C@H](CCCNC(=N)N)NC(=O)CCCCCCCCCCCCCCC)C(=O)N[C@@H](CCCCN)C(=O)O (I: Palmitoyl-RGRKGGRRKK-OH / II: Palmitoyl-RGRKGGRR; amide I:9-II:C) | 64 µg/mL | Active | 50% | 106% | 4.37 | – | 10 µM (≈ 26 µg/mL) | 50% | – | Active | 10 µM (≈ 26 µg/mL) | 10 µM (≈ 26 µg/mL) | 36.5% | –
5 | CCCCCCCCCCCC(=O)N[C@@H](CCCNC(=N)N)C(=O)NCC(=O)N[C@@H](CCCNC(=N)N)C(=O)N[C@@H](CCCCN)C(=O)N[C@H](C(=O)N[C@H](C(=O)N[C@@H](CCCNC(=N)N)C(=O)N[C@@H](CCCNC(=N)N)C(=O)NCCCC[C@H](NC(=O)[C@H](CCCNC(=N)N)NC(=O)[C@H](CCCNC(=N)N)NC(=O)[C@@H](NC(=O)[C@@H](NC(=O)[C@H](CCCCN)NC(=O)[C@H](CCCNC(=N)N)NC(=O)CNC(=O)[C@H](CCCNC(=N)N)NC(=O)CCCCCCCCCCC)C(C)C)C(C)C)C(=O)N[C@@H](CCCCN)C(=O)O)C(C)C)C(C)C (I: Lauroyl-RGRKVVRRKK-OH / II: Lauroyl-RGRKVVRR; amide I:9-II:C) | 543 µg/mL | – | – | 130% | 4.54 | <50% | 6 µM (≈ 15.9 µg/mL) | – | Active | Active | 6 µM (≈ 15.9 µg/mL) | 6 µM (≈ 15.9 µg/mL) | – | Activity [23]: 27.6%; Activity (Pseudomonas aeruginosa [24]): Active
6 | CCCCCCCCCCCCCC(=O)N[C@@H](CCCNC(=N)N)C(=O)NCC(=O)N[C@@H](CCCNC(=N)N)C(=O)N[C@@H](CCCCN)C(=O)NCC(=O)NCC(=O)N[C@@H](CCCNC(=N)N)C(=O)N[C@@H](CCCNC(=N)N)C(=O)NCCCC[C@H](NC(=O)[C@H](CCCNC(=N)N)NC(=O)[C@H](CCCNC(=N)N)NC(=O)CNC(=O)CNC(=O)[C@H](CCCCN)NC(=O)[C@H](CCCNC(=N)N)NC(=O)CNC(=O)[C@H](CCCNC(=N)N)NC(=O)CCCCCCCCCCCCC)C(=O)N[C@@H](CCCCN)C(=O)O (I: Myristoyl-RGRKGGRRKK-OH / II: Myristoyl-RGRKGGRR; amide I:9-II:C) | 82 µg/mL | Active | 50% | 124% | 4.45 | – | 6 µM (≈ 15.3 µg/mL) | 50% | – | Active | 10 µM (≈ 25.4 µg/mL) | 10 µM (≈ 25.4 µg/mL) | 39.2% | –
7 | CCCCCCCCCCCCCC(=O)N[C@@H](CCCNC(=N)N)C(=O)NCC(=O)N[C@@H](CCCNC(=N)N)C(=O)N[C@@H](CCCCN)C(=O)N[C@H](C(=O)N[C@H](C(=O)N[C@@H](CCCNC(=N)N)C(=O)N[C@@H](CCCNC(=N)N)C(=O)NCCCC[C@H](NC(=O)[C@H](CCCNC(=N)N)NC(=O)[C@H](CCCNC(=N)N)NC(=O)[C@@H](NC(=O)[C@@H](NC(=O)[C@H](CCCCN)NC(=O)[C@H](CCCNC(=N)N)NC(=O)CNC(=O)[C@H](CCCNC(=N)N)NC(=O)CCCCCCCCCCCCC)C(C)C)C(C)C)C(=O)N[C@@H](CCCCN)C(=O)O)C(C)C)C(C)C (I: Myristoyl-RGRKVVRRKK-OH / II: Myristoyl-RGRKVVRR; amide I:9-II:C) | 252 µg/mL | Active | 50% | 135% | 4.49 | <50% | 3 µM (≈ 8.13 µg/mL) | 50% | Active | Active | 10 µM (≈ 27.1 µg/mL) | 1.5 µM (≈ 4.07 µg/mL) | – | –
